# The source made the active and inactive calls. The calls are words filed in the database; no cut-off is given here.
# What was measured:
# [1] = tested on: CWR22R; assay: Induction of cell cycle arrest in human 22Rv1 cells assessed as accumulation of cells at S phase at 2 uM incubated for 24 hrs by propidium iodide based flow cytometric analysis (Rvb=20.51 %); assay type: functional
# [2] = Acute toxicity in ICR mouse assessed as change in heart weight at 1000 to 10000 mg/kg,po and measured after 14 days; assay type: organism-based; details: in vivo, 336 h, dose 1000-10000 mg/kg, time 14 day
# [3] = tested on: DU-145; assay: Antitumor activity against human DU-145 xenografted in BALB/c nude mouse as upregulation of p27 level in tumor at 100 to 200 mg/kg,po administrated once daily for 21 days by Western blot analysis; assay type: functional, organism-based; details: dose 100-200 mg/kg, time 21.0 day
# [4] = tested on: CWR22R; assay: Induction of apoptosis in human 22Rv1 cells assessed as increase in cleaved PARP level at 2 to 8 uM incubated for 24 hrs by Western blot analysis; assay type: functional, cell-based; details: dose 2-8 µM
# [5] = tested on: CWR22R; assay: Antiproliferative activity against human 22Rv1 cells assessed as inhibition of cell proliferation incubated for 3 days by CCK-8 assay; assay type: functional, cell-based; details: 22Rv1, 72 h
# [6] = biological target: T1, Dual specificity tyrosine-phosphorylation-regulated kinase 2 (Homo sapiens) (UniProt Q92630); assay: Inhibition of DYRK2 in human 22Rv1 cells assessed as reduction in 4E-BP1 phosphorylation at 2 to 8 uM incubated for 24 hrs by Western blot analysis; assay type: cell-based; details: dose 2-8 µM
# T1 sequence (whole entry): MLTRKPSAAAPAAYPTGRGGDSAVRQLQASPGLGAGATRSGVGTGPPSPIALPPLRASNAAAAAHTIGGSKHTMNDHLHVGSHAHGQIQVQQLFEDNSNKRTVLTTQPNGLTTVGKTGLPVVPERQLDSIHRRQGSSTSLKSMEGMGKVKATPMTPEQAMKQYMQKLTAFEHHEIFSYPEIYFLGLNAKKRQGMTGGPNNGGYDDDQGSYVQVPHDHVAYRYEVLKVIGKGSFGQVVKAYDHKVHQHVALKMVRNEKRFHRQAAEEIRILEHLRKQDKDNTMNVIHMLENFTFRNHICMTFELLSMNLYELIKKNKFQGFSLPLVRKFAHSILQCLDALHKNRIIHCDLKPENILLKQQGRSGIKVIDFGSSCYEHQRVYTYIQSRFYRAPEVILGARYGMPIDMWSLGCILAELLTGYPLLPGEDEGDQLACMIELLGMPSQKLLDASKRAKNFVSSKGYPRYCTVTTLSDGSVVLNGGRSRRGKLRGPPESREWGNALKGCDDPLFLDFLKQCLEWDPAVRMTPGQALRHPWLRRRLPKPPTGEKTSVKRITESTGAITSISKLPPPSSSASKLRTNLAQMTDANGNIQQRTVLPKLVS
# [7] = tested on: DU-145; assay: Antiproliferative activity against human DU-145 cells assessed as inhibition of cell proliferation incubated for 3 days by CCK-8 assay; assay type: functional, cell-based; details: DU-145, 72 h
# [8] = tested on: CWR22R; assay: Antimigratory activity against human 22Rv1 cells assessed as upregulation of E-cadherin expression level at 2 to 8 uM incubated for 24 hrs by Western blot analysis; assay type: functional, cell-based; details: dose 2-8 µM
# [9] = tested on: CWR22R; assay: Induction of apoptosis in human 22Rv1 cells assessed as apoptotis rate at 4 uM incubated for 24 hrs by Annexin V-FITC and PI staining based flow cytometry (Rvb= 3.08%); assay type: functional
# [10] = tested on: DU-145; assay: Antimigratory activity against human DU-145 cells assessed as upregulation of E-cadherin expression level at 2 to 8 uM incubated for 24 hrs by Western blot analysis; assay type: functional, cell-based; details: dose 2-8 µM
compound,measurement,setting,value
Cl.O=C(c1ccc(Nc2ncc(F)c(-c3ccc4scnc4c3)n2)nc1)N1CCNCC1,Activity,[1],14.24%
same,Activity,[2],Non-Toxic
same,Activity,[3],Active
same,Activity,[4],Active
same,IC50,[5],2.56 µM
same,inhibition,[6],Active
same,IC50,[7],1.26 µM
same,Activity,[8],Active
same,Activity,[9],21.78%
same,Activity,[10],Active

# — ChEMBL document CHEMBL5247641, “Discovery of Potent DYRK2 Inhibitors with High Selectivity, Great Solubility, and Excellent Safety Properties for the Treatment of Prostate Cancer” (J Med Chem, 2023)
